Data from patent publication US10226445B2, “Pharmaceutical preparations” (Symrise AG, priority 2013, dated 2019).

System: HGT-1 cells
Assay: Intracellular pH / proton secretion of HGT-1 cell cultures (SNARF-1-AM dye)
Format: cell-based, human
Settings: for proton secretion in the HGT-1 cells (in words): substances of group (b), Tables 1A and 1B; for activation at 30 µM: 0.03 mM substance of group (a) alone; for activation at 300 µM: 0.3 mM substance of group (a) alone; for stimulation of proton secretion by 3 mM caffeine or 0.3 mM theobromine (in words): additional administration at a concentration of 0.3 mM; for induced gastric acid secretion (in words): preparations with caffeine and/or theobromine as component (b)
Procedure: Human parietal cells, also known as human gastric tumor cell line (HGT-1), are used as cell model. These were provided by Dr. C. Laboisse (Laboratory of Pathological Anatomy, Nantes, France). The cells were cultured under standard conditions at 37° C., 5% CO2 in DMEM (Dulbecco's Modified Eagle's Medium) with 4 g/l glucose, 10% FBS, 2% L-glutamine and 1% penicillin/streptomycin. For the measurement of the intracellular proton concentration, the cells are treated with trypsin/EDTA, the viability determined by means of trypan blue staining and 100 000 cells/well seeded in black 96-well plates.
To measure the intracellular pH, the dye 1,5-carboxyseminaphthorhodafluoro acetoxymethyl ester (SNARF-1-AM) is used. The cells in the 96-well plates are washed once with Krebs-Hepes buffer (KRHP) and incubated at 37° C. and 5% CO2 for 30 min with the dye dissolved in KRHP at a concentration of 3 μM. The cells are then washed twice with KRHP and substances of group (b), for example 3 mM caffeine or 0.3 mM theobromine, alone or in combination with substances of group (a), for example, homoeriodictyol (HED) or eriodictyol or matairesinol, lariciresinol or enterolactone, are applied in volumes of 100 μl at various concentrations in phenol red-free DMEM; as additional control experiments, the abovementioned substances of group (a) are tested alone. Homoeriodictyol is dissolved in double-distilled water while eriodictyol, matairesinol, lariciresinol or enterolactone are dissolved in ethanol (EtOH). The final concentration of solvent which is added to the cells is at most 1%. The fluorescent dye is excited at a wavelength of 488 nm and the emission measured at 580 nm and 640 nm. The ratio of the fluorescence values at 580 nm to 640 nm is compared to a calibration curve from which the pH can be determined. For the calibration curve, the cells are treated with a potassium phosphate buffer of different pH values from pH 7.2-8.2 and 2 μM nigericin. Nigericin equilibrates the intracellular and extracellular pH such that the intracellular pH may be defined. The intracellular H^+ concentration is determined from the intracellular pH. The intracellular proton index (IPX) is calculated by log 2 transformation of the ratio of treated cells and untreated cells (control). […] The number of replicates specified refers to the technical replicates (tr) or the number or total replicates (n), which results from the number of technical replicates multiplied by the number of biological replicates.

[1] = 0.03 mM substance of group (a) in combination with 3 mM caffeine, 10 minutes
[2] = 0.3 mM substance of group (a) in combination with 3 mM caffeine, 10 minutes
[3] = Homo sapiens, HGT-1, 10 min, 10 minutes, read-out: T/C [%], percentage increase of the proton secretion compared to untreated controls
[4] = 0.03 mM substance of group (a) in combination with 0.3 mM theobromine, 10 minutes
[5] = 0.3 mM substance of group (a) in combination with 0.3 mM theobromine, 10 minutes

SMILES	T/C [%], percentage increase of the proton secretion compared to untreated controls (3 mM substance + 1% EtOH, 10 minutes stimulation)	proton secretion in the HGT-1 cells (in words)	T/C [%], percentage increase of the proton secretion compared to untreated controls [1]	T/C [%], percentage increase of the proton secretion compared to untreated controls [2]	activation at 30 µM [3]	activation at 300 µM [3]	stimulation of proton secretion by 3 mM caffeine or 0.3 mM theobromine (in words)	induced gastric acid secretion (in words)	T/C [%], percentage increase of the proton secretion compared to untreated controls [4]	T/C [%], percentage increase of the proton secretion compared to untreated controls [5]	T/C [%], percentage increase of the proton secretion compared to untreated controls (0.003 mM substance of group (a) in combination with 0.3 mM theobromine, 10 minutes)	activation at 3 µM (Homo sapiens, HGT-1, 10 min, 0.003 mM substance of group (a) alone, 10 minutes, read-out: T/C [%], percentage increase of the proton secretion compared to untreated controls)	activation at 1000 µM (Homo sapiens, HGT-1, 10 min, 1 mM substance alone, 10 minutes stimulation, read-out: T/C [%], percentage increase of the proton secretion compared to untreated controls)	T/C [%], percentage increase of the proton secretion compared to untreated controls (0.3 mM substance of group (b) + 1% EtOH, 10 minutes stimulation)
Cn1c(=O)c2c(ncn2C)n(C)c1=O [Caffeine, caffeine, reference compound]	44.92%	stimulated	–	–	–	–	–	–	–	–	–	–	–	–
O=C1OC[C@@H](Cc2cccc(O)c2)[C@@H]1Cc1cccc(O)c1 [Enterolactone, enterolactone]	–	–	23.41%	−18.25%	-2.76%	-27.3%	reduced or completely inhibited	highest reduction or complete inhibition	–	–	–	–	–	–
O=C1CC(c2ccc(O)c(O)c2)Oc2cc(O)cc(O)c21 (stereo not drawn) [Eriodictyol, eriodictyol]	–	–	29.69%	−33.96%	-10.8%	-11.7%	reduced or completely inhibited	highest reduction or complete inhibition	23.95%	−42.86%	–	–	–	–
COc1cc(C2CC(=O)c3c(O)cc(O)cc3O2)ccc1O (stereo not drawn) [HED, homoeriodictyol]	–	–	37.99%	20.18%	12.7%	-3.66%	reduced or completely inhibited	highest reduction or complete inhibition	13.79%	−16.92%	21.56%	-8.04%	–	–
NCCc1c[nH]cn1 [Histamine, reference compound]	–	–	–	–	–	–	–	–	–	–	–	–	27.4%	–
COc1cc(C[C@H]2CO[C@H](c3ccc(O)c(OC)c3)[C@H]2CO)ccc1O [Lariciresinol, lariciresinol]	–	–	46.40%	21.57%	6.4%	-2.04%	reduced or completely inhibited	highest reduction or complete inhibition	31.73%	17.55%	–	–	–	–
COc1cc(C[C@H]2COC(=O)[C@@H]2Cc2ccc(O)c(OC)c2)ccc1O [Matairesinol, matairesinol]	–	–	14.39%	−20.43%	-9.4%	-31.7%	reduced or completely inhibited	highest reduction or complete inhibition	23.41%	−18.25%	–	–	–	–
Cn1cnc2c1c(=O)[nH]c(=O)n2C [Theobromine, theobromine, reference compound]	–	stimulated	–	–	–	–	–	–	–	–	–	–	–	32.11%
